The text below walks through data of patent US20090181986A1, “SUBSTITUTED HETEROCYCLIC COMPOUNDS” (priority 2007, published 2009).

The data set addresses hERG potassium channel (Homo sapiens, UniProt Q12809). Description: hERG screening assay (PatchXpress patch clamp, CHO cells). On the technique in general: The hERG channel carries a current that helps repolarise heart muscle cells.

Chain of hERG potassium channel (Q12809 whole entry): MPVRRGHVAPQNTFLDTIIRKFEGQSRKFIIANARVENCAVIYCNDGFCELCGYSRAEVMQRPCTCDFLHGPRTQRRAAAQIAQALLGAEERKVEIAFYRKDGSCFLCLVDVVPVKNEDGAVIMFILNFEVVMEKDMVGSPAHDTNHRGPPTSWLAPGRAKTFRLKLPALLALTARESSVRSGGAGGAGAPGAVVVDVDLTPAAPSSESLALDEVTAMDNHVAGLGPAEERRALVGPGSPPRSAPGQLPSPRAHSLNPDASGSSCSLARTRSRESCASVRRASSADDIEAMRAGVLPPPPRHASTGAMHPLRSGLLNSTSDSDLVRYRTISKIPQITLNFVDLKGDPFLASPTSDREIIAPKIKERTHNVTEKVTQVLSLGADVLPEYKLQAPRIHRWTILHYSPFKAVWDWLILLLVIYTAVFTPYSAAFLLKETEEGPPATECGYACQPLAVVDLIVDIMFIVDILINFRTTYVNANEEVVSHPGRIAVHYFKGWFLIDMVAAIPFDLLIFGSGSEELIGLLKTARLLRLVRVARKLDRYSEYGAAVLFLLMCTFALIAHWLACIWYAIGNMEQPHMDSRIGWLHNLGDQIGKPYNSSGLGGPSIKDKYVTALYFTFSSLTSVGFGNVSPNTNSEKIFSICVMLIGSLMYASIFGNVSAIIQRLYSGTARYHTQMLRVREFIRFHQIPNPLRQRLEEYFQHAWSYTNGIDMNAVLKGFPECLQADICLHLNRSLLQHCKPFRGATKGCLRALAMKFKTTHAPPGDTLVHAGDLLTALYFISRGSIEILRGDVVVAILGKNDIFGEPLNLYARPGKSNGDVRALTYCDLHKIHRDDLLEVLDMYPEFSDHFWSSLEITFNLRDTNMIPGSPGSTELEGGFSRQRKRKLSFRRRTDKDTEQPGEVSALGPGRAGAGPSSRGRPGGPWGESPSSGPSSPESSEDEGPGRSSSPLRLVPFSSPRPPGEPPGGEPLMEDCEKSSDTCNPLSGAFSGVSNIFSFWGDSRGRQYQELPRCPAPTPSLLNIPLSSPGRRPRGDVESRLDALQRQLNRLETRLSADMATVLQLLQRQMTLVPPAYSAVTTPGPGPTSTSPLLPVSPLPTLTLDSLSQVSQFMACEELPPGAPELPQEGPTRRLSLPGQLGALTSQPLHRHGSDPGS

For `CC(=O)c1ccc(-c2ccccc2C2C(C(=O)OCc3ccccc3)=C(C)Nc3nnnn32)cc1` (centres unmarked) [PT-415, benzyl 7-(4′-acetylbiphenyl-2-yl)-5-methyl-4,7-dihydrotetrazolo[1,5-a]pyrimidine-6-carboxylate], the “hERG Patch Clamp hERG % blk (1 μM test cmpd)” value was found to be 10.5% and the “hERG Patch Clamp hERG % blk (10 μM test cmpd)” value is on record as 38.5%.
Consider `CC1=C(C(=O)OCc2ccccc2)C(c2ccccc2N2CCN(S(C)(=O)=O)CC2)n2nnnc2N1` (centres unmarked) [PT-339, benzyl 5-methyl-7-(2-(4-(methylsulfonyl)piperazin-1-yl)phenyl)-4,7-dihydrotetrazolo[1,5-a]pyrimidine-6-carboxylate], for which the “hERG Patch Clamp hERG % blk (1 μM test cmpd)” value is recorded as 11.5% and the “hERG Patch Clamp hERG % blk (10 μM test cmpd)” value is given as 43.5%.
For `CC1=C(C(=O)OCc2ccccc2)[C@@H](c2ccccc2-c2ccc(Cl)s2)n2nnnc2N1` [PT-237, (R)-benzyl 7-(2-(5-chlorothiophen-2-yl)phenyl)-5-methyl-4,7-dihydrotetrazolo[1,5-a]pyrimidine-6-carboxylate] the same measures were 11.5% and 22.5%.
For `COC(=O)C1=C(C)Nc2nnnn2C1c1cccc2ccccc12` (centres unmarked) [PT-512, methyl 5-methyl-7-(naphthalen-1-yl)-4,7-dihydrotetrazolo[1,5-a]pyrimidine-6-carboxylate] the same measures were 10.5% and 14%.
Taken in the same sequence, the figures for `CC1=C(C(=O)OCc2ccccc2)C(c2ccccc2-c2cccc(NS(C)(=O)=O)c2)n2nnnc2N1` (centres unmarked) [PT-348, benzyl 5-methyl-7-(3′-(methylsulfonamido)biphenyl-2-yl)-4,7-dihydrotetrazolo[1,5-a]pyrimidine-6-carboxylate] were 10% and 38.5%.
Turning to `COc1ccc2ccccc2c1C1C(C(=O)OCc2ccccc2)=C(C)Nc2nnnn21` (centres unmarked) [PT-030, benzyl 7-(2-methoxynaphthalen-1-yl)-5-methyl-4,7-dihydrotetrazolo[1,5-a]pyrimidine-6-carboxylate], the “hERG Patch Clamp hERG % blk (1 μM test cmpd)” value was determined as 10.5% and the “hERG Patch Clamp hERG % blk (10 μM test cmpd)” value amounted to 34.5%.
Take `COc1cc(Cl)ccc1COC(=O)C1=C(C)NC2=C(C(=O)CCC2)C1c1c(Cl)cccc1Cl` (centres unmarked) [PT-303, 4-chloro-2-methoxybenzyl 4-(2,6-dichlorophenyl)-2-methyl-5-oxo-1,4,5,6,7,8-hexahydroquinoline-3-carboxylate]: the “hERG Patch Clamp hERG % blk (1 μM test cmpd)” value stood at 12% and the “hERG Patch Clamp hERG % blk (10 μM test cmpd)” value is given as 30.5%.
Taken in the same sequence, the figures for `CCOC(=O)C1=C(C)Nc2nnnn2C1c1ccccc1-n1ccnc1.Cl` (centres unmarked) [PT-476, ethyl 7-(2-(1H-imidazol-1-yl)phenyl)-5-methyl-4,7-dihydrotetrazolo[1,5-a]pyrimidine-6-carboxylate hydrochloride] were 17.5% and 23%.
In the case of `CCCC1=C(C(=O)OCC)C(c2ccc(C(=O)O)cc2)C2=C(CC(C)(C)CC2=O)N1` (centres unmarked) [PT-133, 4-(3-(ethoxycarbonyl)-7,7-dimethyl-5-oxo-2-propyl-1,4,5,6,7,8-hexahydroquinolin-4-yl)benzoic acid], the “hERG Patch Clamp hERG % blk (1 μM test cmpd)” value was determined as 10% and the “hERG Patch Clamp hERG % blk (10 μM test cmpd)” value is 12%.
Taken in the same sequence, the figures for `CCOC(=O)C1=C(C)Nc2nnnn2C1c1sc2ccccc2c1C` (centres unmarked) [PT-018, ethyl 5-methyl-7-(3-methylbenzo[b]thiophen-2-yl)-4,7-dihydrotetrazolo[1,5-a]pyrimidine-6-carboxylate] were 14.5% and 36.5%.
For `CCOC(=O)C1=C(C)Nc2nnnn2C1c1ccccc1-n1ccnc1C.Cl` (centres unmarked) [PT-457, ethyl 5-methyl-7-(2-(2-methyl-1H-imidazol-1-yl)phenyl)-4,7-dihydrotetrazolo[1,5-a]pyrimidine-6-carboxylate hydrochloride], the “hERG Patch Clamp hERG % blk (1 μM test cmpd)” value was determined as 10% and the “hERG Patch Clamp hERG % blk (10 μM test cmpd)” value is 21%.
For the compound `CC1=C(C(=O)NCc2ccccc2)C(c2ccc3ccccc3c2)n2nnnc2N1` (centres unmarked) [PT-068, N-benzyl-5-methyl-7-(naphthalen-2-yl)-4,7-dihydrotetrazolo[1,5-a]pyrimidine-6-carboxamide], the “hERG Patch Clamp hERG % blk (1 μM test cmpd)” value was 14% and the “hERG Patch Clamp hERG % blk (10 μM test cmpd)” value is given as 22.5%.
For `COC(=O)c1ccc(-c2n[nH]c3c2C(c2cccc4ccccc24)C2=C(COC2=O)N3)cc1` (centres unmarked) [PT-085, methyl 4-(4-(naphthalen-1-yl)-5-oxo-4,5,7,8-tetrahydro-1H-furo[3,4-b]pyrazolo[4,3-e]pyridin-3-yl)benzoate] the same measures were 34% and 44.5%.
For `CC1=C(C(=O)OCc2ccc(Cn3cccn3)cc2)C(c2cccs2)n2nnnc2N1` (centres unmarked) [PT-280, 4-((1H-pyrazol-1-yl)methyl)benzyl 5-methyl-7-(thiophen-2-yl)-4,7-dihydrotetrazolo[1,5-a]pyrimidine-6-carboxylate] the same measures were 11.5% and 48%.
Taken in the same sequence, the figures for `CC1=C(C(=O)OC(C)C)C(c2cccc3ccccc23)n2nnnc2N1` (centres unmarked) [PT-021, isopropyl 5-methyl-7-(naphthalen-1-yl)-4,7-dihydrotetrazolo[1,5-a]pyrimidine-6-carboxylate] were 13% and 43.5%.
Regarding `CC1=C(C(=O)OCc2ccccc2)C(c2nccs2)n2nccc2N1` (centres unmarked) [PT-363, benzyl 5-methyl-7-(thiazol-2-yl)-4,7-dihydropyrazolo[1,5-a]pyrimidine-6-carboxylate], the “hERG Patch Clamp hERG % blk (1 μM test cmpd)” value is on record as 10% and the “hERG Patch Clamp hERG % blk (10 μM test cmpd)” value was determined as 19.5%.
For `CCOC(=O)C1=C(C)Nc2nccn2C1c1ccc2ccccc2c1` (centres unmarked) [PT-086, ethyl 7-methyl-5-(naphthalen-2-yl)-5,8-dihydroimidazo[1,2-a]pyrimidine-6-carboxylate] the same measures were 13.5% and 57.5%.
Taken in the same sequence, the figures for `CCOC(=O)C1=C(C)Nc2[nH]ncc2C1c1ccc(OC)cc1OCc1ccccc1` (centres unmarked) [PT-445, ethyl 4-(2-(benzyloxy)-4-methoxyphenyl)-6-methyl-4,7-dihydro-1H-pyrazolo[3,4-b]pyridine-5-carboxylate] were 10.5% and 50%.
Taken in the same sequence, the figures for `C=CCOC(=O)C1=C(C)Nc2nnnn2C1c1cccc2ccccc12` (centres unmarked) [PT-319, allyl 5-methyl-7-(naphthalen-1-yl)-4,7-dihydrotetrazolo[1,5-a]pyrimidine-6-carboxylate] were 10% and 41%.
On to `CC1=C(C(=O)OCc2ccc(Cn3cccn3)cc2)C(c2cccc3ccccc23)n2nnnc2N1` (centres unmarked) [PT-279, 4-((1H-pyrazol-1-yl)methyl)benzyl 5-methyl-7-(naphthalen-1-yl)-4,7-dihydrotetrazolo[1,5-a]pyrimidine-6-carboxylate], for which the “hERG Patch Clamp hERG % blk (1 μM test cmpd)” value is 12.5% and the “hERG Patch Clamp hERG % blk (10 μM test cmpd)” value was determined as 45%.
On to `CC1=C(C(=O)OCc2ccccc2)C(c2ccccc2-c2ccc(C(=O)O)cc2)C2=C(CCCC2=O)N1` (centres unmarked) [PT-249, 2′-(3-(benzyloxycarbonyl)-2-methyl-5-oxo-1,4,5,6,7,8-hexahydroquinolin-4-yl)biphenyl-4-carboxylic acid], for which the “hERG Patch Clamp hERG % blk (1 μM test cmpd)” value was determined as 11.5% and the “hERG Patch Clamp hERG % blk (10 μM test cmpd)” value stood at 15.5%.
For `CC1=C(C(=O)OCc2ccccc2)C(c2cccc3c2OCO3)n2nnnc2N1` (centres unmarked) [PT-034, benzyl 7-(benzo[d][1,3]dioxol-4-yl)-5-methyl-4,7-dihydrotetrazolo[1,5-a]pyrimidine-6-carboxylate] the same measures were 14.5% and 56%.
Take `CC1=C(C(=O)OC(c2ccccc2)C2CC2)C(c2cccc3ccccc23)n2nnnc2N1` (centres unmarked) [PT-002, cyclopropyl(phenyl)methyl 5-methyl-7-(naphthalen-1-yl)-4,7-dihydrotetrazolo[1,5-a]pyrimidine-6-carboxylate]: the “hERG Patch Clamp hERG % blk (1 μM test cmpd)” value amounted to 11.5% and the “hERG Patch Clamp hERG % blk (10 μM test cmpd)” value was found to be 28%.
Taken in the same sequence, the figures for `CCOC(=O)C1=C(C)Nc2[nH]ncc2C1c1ccccc1Br` (centres unmarked) [PT-448, ethyl 4-(2-bromophenyl)-6-methyl-4,7-dihydro-1H-pyrazolo[3,4-b]pyridine-5-carboxylate] were 10% and 57.5%.
For `CC1=C(C(=O)OC(C)Cc2ccccc2)C(c2cccc3ccccc23)n2nnnc2N1` (centres unmarked) [PT-064, 1-phenylpropan-2-yl 5-methyl-7-(naphthalen-1-yl)-4,7-dihydrotetrazolo[1,5-a]pyrimidine-6-carboxylate] the same measures were 20.5% and 37.5%.
Regarding `CC1=C(C(=O)OCc2ccccc2)C(c2ccccc2-c2ccccc2)n2nnnc2N1` (centres unmarked) [PT-025, benzyl 7-(biphenyl-2-yl)-5-methyl-4,7-dihydrotetrazolo[1,5-a]pyrimidine-6-carboxylate], the “hERG Patch Clamp hERG % blk (1 μM test cmpd)” value is 11% and the “hERG Patch Clamp hERG % blk (10 μM test cmpd)” value is on record as 53%.
Consider `CC1=C(C(=O)O[C@@H](C)c2ccccc2)[C@@H](c2cccc3ccccc23)n2nnnc2N1` [PT-050, (R)-((S)-1-phenylethyl) 5-methyl-7-(naphthalen-1-yl)-4,7-dihydrotetrazolo[1,5-a]pyrimidine-6-carboxylate], for which the “hERG Patch Clamp hERG % blk (1 μM test cmpd)” value worked out at 10% and the “hERG Patch Clamp hERG % blk (10 μM test cmpd)” value was found to be 53.5%.
For `CC1=C(C(=O)OCc2ccccc2)C(c2sccc2-c2ccc(F)cc2)n2nnnc2N1` (centres unmarked) [PT-397, benzyl 7-(3-(4-fluorophenyl)thiophen-2-yl)-5-methyl-4,7-dihydrotetrazolo[1,5-a]pyrimidine-6-carboxylate] the same measures were 10% and 25%.
